The values below come from US12139498B1, “Positive allosteric modulators of the muscarinic acetylcholine receptor M4” (Vanderbilt University, priority 2023, dated 2024).

For one experiment, the system named is male Sprague-Dawley rats. The experiment is described as follows: Amphetamine-induced hyperlocomotion in rats. The conditions noted are these: 10 mg/kg p.o., amphetamine 0.25 mg/kg s.c., p<0.001.
The next experiment has as its target T1, Human M4 (Homo sapiens, UniProt P08173).
T1 sequence (P08173 1-479): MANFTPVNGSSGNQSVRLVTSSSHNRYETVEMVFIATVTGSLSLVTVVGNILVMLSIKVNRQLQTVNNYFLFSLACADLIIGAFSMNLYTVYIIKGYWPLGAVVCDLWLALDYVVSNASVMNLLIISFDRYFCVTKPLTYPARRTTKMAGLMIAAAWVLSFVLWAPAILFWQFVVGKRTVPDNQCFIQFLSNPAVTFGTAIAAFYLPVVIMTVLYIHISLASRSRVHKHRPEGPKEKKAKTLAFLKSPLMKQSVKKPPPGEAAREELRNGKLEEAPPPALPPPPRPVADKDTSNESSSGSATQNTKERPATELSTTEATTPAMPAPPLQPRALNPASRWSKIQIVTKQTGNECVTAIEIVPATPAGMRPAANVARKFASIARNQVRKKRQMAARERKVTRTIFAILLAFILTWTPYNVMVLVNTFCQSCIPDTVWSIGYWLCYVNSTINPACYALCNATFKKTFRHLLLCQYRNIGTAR
Nature of the experiment: M4 cell-based functional assay (calcium mobilization). The arrangement: expressed in transfected cells. The conditions noted are these: for Emax at 30 µM: % ACh maximum at 30 μM; for EC50: CHO-K1 hM4-Gqi5 cells, calcium flux, increase in EC20 acetylcholine response. In short, it runs like this: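 CHO-K1 cells stably co-expressing hM4 and chimeric Gqi5, loaded with Fluo-4-AM (1.15 μM final, 45 min, 37° C). Compound added ~140 s before EC20 then EC80 acetylcholine; calcium flux by kinetic fluorescence (ex 480/em 530 nm), expressed as fold over basal and normalized to maximal ACh response (1 mM).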
(In general: A change in cytosolic calcium serves as a functional read-out for many receptors and channels.)

For `Cc1nnc2sc(C(=O)NCc3ccc(S(=O)(=O)C(F)(F)F)cc3)c(N)c2c1C` [VU0467154, reference compound], in the experiment on male Sprague-Dawley rats, the “percent reversal of amphetamine-induced hyperlocomotion” value was found to be 52.7%.
Take `Cc1c(N2CCc3nc(C4(F)CC4)sc3C2)nc2nn(CC3CC3)c(=O)n2c1C` [Compound 78, 2-(cyclopropylmethyl)-7-(2-(1-fluorocyclopropyl)-6,7-dihydrothiazolo[5,4-c]pyridin-5(4H)-yl)-5,6-dimethyl-[1,2,4]triazolo[4,3-a]pyrimidin-3(2H)-one]: at Human M4, the maximal response (Emax) at 30 µM is 109% and the half-maximal effective concentration (EC50) is 0.018 µM.
As to `Cc1cc2nccc(=O)n2nc1N1CCc2nc(Br)sc2C1` [Compound 34, 7-(2-bromo-6,7-dihydrothiazolo[5,4-c]pyridin-5(4H)-yl)-8-methyl-4H-pyrimido[1,2-b]pyridazin-4-one], at Human M4, the maximum response (Emax) at 30 µM came out at 70% and the EC50 is 6.07 µM.
For `Cc1c(C#N)nnc(N2CCc3nc(Nc4cccc(F)c4)sc3C2)c1C` [Compound 6, 6-(2-((3-fluorophenyl)amino)-6,7-dihydrothiazolo[5,4-c]pyridin-5(4H)-yl)-4,5-dimethylpyridazine-3-carbonitrile] the same measures were 41% and over 10 µM.
For `Cn1ccc2c(N3CCc4nc(Br)sc4C3)ncnc21` [Compound 27, 2-bromo-5-(7-methyl-7H-pyrrolo[2,3-d]pyrimidin-4-yl)-4,5,6,7-tetrahydrothiazolo[5,4-c]pyridine] the same measures were 43% and over 10 µM.
The corresponding values for `Fc1ccc2ncnc(N3CCc4nc(Br)sc4C3)c2c1` [Compound 28, 2-bromo-5-(6-fluoroquinazolin-4-yl)-4,5,6,7-tetrahydrothiazolo[5,4-c]pyridine] are 101% and 0.045 µM.
In the case of `Cc1cc2nc(=O)cc(C(F)(F)F)n2nc1N1CCc2nc(Br)sc2C1` [Compound 49, 7-(2-bromo-6,7-dihydrothiazolo[5,4-c]pyridin-5(4H)-yl)-8-methyl-4-(trifluoromethyl)-2H-pyrimido[1,2-b]pyridazin-2-one], on Human M4, the Emax at 30 µM was 76% and the concentration giving a half-maximal response (EC50) was 0.386 µM.
The corresponding values for `Cc1c(C#N)nnc(N2CCc3nc(Br)sc3C2)c1C` [Compound 10, 6-(2-bromo-6,7-dihydrothiazolo[5,4-c]pyridin-5(4H)-yl)-4,5-dimethylpyridazine-3-carbonitrile] are 85% and 0.114 µM.
For `Cc1cc(C#N)cnc1N1CCc2nc(NCc3cccc(F)c3)sc2C1` [Compound 18, 6-(2-((3-fluorobenzyl)amino)-6,7-dihydrothiazolo[5,4-c]pyridin-5(4H)-yl)-5-methylnicotinonitrile], on Human M4, the maximum response (Emax) at 30 µM is 44% and the half-maximal effective concentration (EC50) amounted to 4.11 µM.
The corresponding values for `Cc1cc(=O)n2nc(N3CCc4nc(Br)sc4C3)c(C)cc2n1` [Compound 35, 7-(2-bromo-6,7-dihydrothiazolo[5,4-c]pyridin-5(4H)-yl)-2,8-dimethyl-4H-pyrimido[1,2-b]pyridazin-4-one] are 89% and 0.291 µM.
For `Cc1cc2nc(C)c(F)c(=O)n2nc1N1CCc2nc(Br)sc2C1` [Compound 40, 7-(2-bromo-6,7-dihydrothiazolo[5,4-c]pyridin-5(4H)-yl)-3-fluoro-2,8-dimethyl-4H-pyrimido[1,2-b]pyridazin-4-one] the same measures were 85% and 0.094 µM.
The corresponding values for `Cc1c(C#N)nnc(N2CCc3nc(C#N)sc3C2)c1C` [Compound 13, 5-(6-cyano-4,5-dimethylpyridazin-3-yl)-4,5,6,7-tetrahydrothiazolo[5,4-c]pyridine-2-carbonitrile] are 78% and 1.21 µM.
Take `Cc1cc2nccnc2nc1N1CCc2nc(C3CC3(C)C)sc2C1` (stereo not shown) [Compound 63, 2-(2,2-dimethylcyclopropyl)-5-(7-methylpyrido[2,3-b]pyrazin-6-yl)-4,5,6,7-tetrahydrothiazolo[5,4-c]pyridine]: at Human M4, the maximal response (Emax) at 30 µM turned out to be 63% and the concentration for a half-maximal effect (EC50) came to 0.738 µM.

As a reminder, the Emax is the greatest response seen or fitted, relative to the assay's reference. The term EC50 denotes the concentration at which the effect is half-maximal.
